# Measurements from US11266715B2, “C3A receptor agonists for use against ischemic brain injury, stroke, traumatic brain injury, spinal cord injury and neurodegenerative disorders” (priority 2016, dated 2022).
# System: synapsin I+ puncta
# Experiment: Synapsin I immunostaining of dorsal hippocampus after neonatal HI
# Type: in vivo, mouse
# Settings: between groups or hemispheres
# Protocol: Neuronal nuclei (NeuN), growth associated protein 43 (GAP-43), synapsin I (SYN), vesicular glutamate transporter 1 (VGLUT1), Glial Fibrillary Acidic Protein (GFAP) and ionized calcium-binding adapter molecule 1 (Iba-1) were visualized in the cornu ammonis (CA) and dentate gyrus (DG) of the dorsal hippocampus by immunohistochemistry. Briefly, following heat-induced antigen retrieval with 0.01 M citrate buffer (pH 6, 0.05% Tween 20) for 3×5 min, sections were washed 3×5 min with PBS-T (0.05% Tween 20), non-specific protein binding was reduced by incubation with blocking buffer [4% normal donkey serum (NeuN and Iba-1), 1% bovine serum albumin (GAP-43 and SYN), 3% normal goat serum (VGLUT1), 2% bovine serum albumin (GFAP) in PBS-T] for 1 h at room temperature (RT). […]
# NeuN positive cells, GFAP positive relative area, as well as GAP-43, SYN, and VGLUT1 positive puncta were counted by using MetaMorph software (ver. 7.8.6, Molecular Devices, CA, USA) on confocal images obtained with a 20× (NeuN and GFAP) or 63× (GAP-43, SYN, and VGLUT1) objective (Carl Zeiss LSM 700 Laser Scanning Microscope, Jena, Germany). Iba-1 positive cell somata were counted on bright field images obtained with a 20× objective (Nikon Eclipse 80i). […]
substance,measurement,value
"C3a: Purified human C3a peptide (Complement Technologies), C3a receptor agonist, amino acid sequence SEQ ID NO: 1",density or average area of synapsin I+ puncta in CA1 or dentate gyrus,did not find any differences
